From patent US20110223633A1, “METHODS AND REAGENTS FOR ENRICHMENT AND CHARACTERIZATION OF PHOSPHORYLATED BIOMOLECULES” (priority 2008, published 2011)
Several values for one entry are separate records, joined by “and”; a condition that tells them apart may be missing. Equal entries are not always repeated.

System: lipid droplet (LD) proteins from mouse white adipose tissue (WAT)
Assay: Stoichiometry of LD protein phosphorylation by isotope tagging and enzymatic (BIAP) dephosphorylation after CL316,243 injection
Type: in vivo
Method: Purification of lipid droplets (LD) from mouse white adipose tissue (WAT). All animals were maintained in the Canadian Council on Animal Care (CCAC)-accredited animal facilities of the CHU Ste-Justine Research Center. Two month-old (˜25-29 g BW) male C57BU6J mice, were purchased from Charles River Canada (St. Constant, PQ, Canada), and housed for an additional month at 25° C. in an animal facility with 12:12 h light-dark cycles. During this time, animals were fed ad libitum with 5K chow (˜18% protein, ˜6% fat, ˜5% fiber). […] The homogenate was filtered through a nylon mesh and centrifuged at 17 g for 2 min. Pellet and infranatant were removed and the floating lipid droplets resuspended in 2 ml of the homogenization buffer and centrifuged as above. After the second wash with 50 mM TRIS, pH 7.4, containing 1 M NaCl (Fisher), the LD were snap-frozen and kept at −80° C. until further use.
Extraction of LD proteins and preparation of peptide digests. Purified LD preparations (average wet weight 250 mg) were resuspended in 1 ml of ice-cold acetone, sonicated for 25 sec at 80 W, incubated for 16 h at −20° C. and centrifuged for 10 min at 13,000 g. The supernatants were discharged and pellets were re-extracted twice with ice-cold acetone (1 h each time). After removal of residual acetone under a stream of nitrogen, the protein pellets were re-suspended in 300 μl of a 0.1% sodium 3-[(2-methyl-2-undecyl-1,3-dioxolan-4-yl)methoxyl]-1-propanesulfonate (RapiGest™ SF) in 50 mM NH4HCO3, pH 7.8, containing 5 mM DTT, then sonicated for 10-25 sec and incubated in a boiling bath for 5 min. After 5-min centrifugation at 13,000 g, supernatants were treated for 30 min with IAA in the dark (final concentration 15 mM), and digested overnight with trypsin (Promega, sequencing grade; trypsin to protein ratio 1:50). After digestion, samples were supplemented with TFA (final concentration 0.5%), incubated at 37° C. for 1 h and centrifuged at 13,000 g for 10-min to remove RapiGest™ SF.
Labeling and dephosphorylation of LD peptides. Peptide digests (˜200 μg of protein) were de-salted by the reverse phase chromatography on macro-C18 spin columns (Harvard apparatus) eluted with 70% acetonitrile in water, dried in a SpeedVac™ Concentrator (Savant) and labeled with heavy or light SIMPL (Stable Isotope-containing Multiplex Peptide Labels) isotope tags as described (Fedjaev et al., 2007, supra). After adjusting pH to 8.0 with 500 mM NH4HCO3, samples were supplemented with 3 units of bovine intestinal alkaline phosphatase (BIAP, Sigma, P-5521) and incubated for 3 h at 37° C. BIAP reaction was terminated by addition of concentrated TCA (Sigma) to a final concentration 10%, followed by 1 h incubation on ice and 30-min centrifugation at 13,000 g. Samples containing dephosphorylated peptides were then mixed 1:1 with untreated samples, extracted twice with ethylacetate (Sigma) to remove the excess of unreacted SIMPL labels and analyzed by 2D-LC-MS/MS as described below.
HPLC of peptides on weak anion exchange (WAX) column. Offline WAX HPLC was performed on an Agilent™ 1100 Series liquid chromatography system. Peptides were loaded on C18 (Jupiter™ 4 μm Proteo 90 Å 50×1 mm, Phenomenex) column in 10 mM ammonium acetate containing 10% ACN, and eluted with step gradient of 70% of ACN directly on the WAX (PolySulfoethyl A […] 5 μm 300 Å) column. The column was washed with 10 mM ammonium acetate buffer containing 10% ACN for 10 min and peptides were eluted with 0-100% gradient of 2 M ammonium formate, 10% ACN. […] fractions of 50 μl were collected. Collected fractions were immediately acidified with FA (final concentration 0.2%) and analyzed by LC-MS/MS.
μLC-MS/MS analysis of LD peptides. Peptides were analyzed using a LC-MS/MS instrument consisting of an Agilent™ 1100 Series nanoflow liquid chromatography system and LC/MSD-Trap-SL™ ion trap mass spectrometer (Agilent Technologies, Santa Clara, Calif., USA). […]

C[C@H](Cc1ccc2c(c1)OC(C(=O)[O-])(C(=O)[O-])O2)NC[C@H](O)c1cccc(Cl)c1.[Na+].[Na+] [CL316,243, disodium 5-[(2R)-2-[[(2R)-2-(3-Chlorophenyl)-2-hydroxyethyl]amino]propyl]-1,3-benzodioxole-2,2-dicarboxylate]
Mean isotope ratio Treated, peptide KLLVSSEDYGR (Alpha II spectrin, LD from WAT, 1 mg/kg i.p., 15 min): 3.47 | Ratio Treated, peptide SSEEIESAFR (Alpha-II spectrin, z 2, m/z 668.3, LD from WAT of treated mice): 0.64(2) | Ratio Treated, peptide DLTNVQNLQK (Alpha-II spectrin, z 2, m/z 674.3, LD from WAT of treated mice): 0.98(1) | Ratio Treated, peptide SQLLGSAHEVQR (Alpha-II spectrin, z 2, m/z 750.4, LD from WAT of treated mice): 1.05(4) | Ratio Treated, peptide DTEQVDNWMSK (Alpha-II spectrin, z 2, m/z 764.7, LD from WAT of treated mice): 1.03(1) | Ratio Treated, peptide TKQDEVNAAWQR (Alpha-II spectrin, z 2, m/z 813.4, LD from WAT of treated mice): 0.84(1) | Ratio Treated, peptide EANELQQWITEK (Alpha-II spectrin, z 2, m/z 832.4, LD from WAT of treated mice): 1.1(3) | Ratio Treated, peptide MQHNLEQQIQAR (Alpha-II spectrin, z 2, m/z 835.9, LD from WAT of treated mice): 0.94(3) | Ratio Treated, peptide HQAFEAELSANQSR (Alpha-II spectrin, z 2, m/z 881.9, LD from WAT of treated mice): 1.24(2) | Ratio Treated, peptide LIQEQHPEEELIK (Alpha-II spectrin, z 2, m/z 891.5, LD from WAT of treated mice): 1.09(4) | Ratio Treated, peptide HQAFEAELHANADR (Alpha-II spectrin, z 2, m/z 892.5, LD from WAT of treated mice): 0.84(3) | Ratio Treated, peptide HQLLEADISAHEDR (Alpha-II spectrin, z 2, m/z 908.1, LD from WAT of treated mice): 1.04(2) | Ratio Treated, peptide GNAMVEEGHFAAEDVK (Alpha-II spectrin, z 2, m/z 940, LD from WAT of treated mice): 1.1(2) | Ratio Treated, peptide AQLADSFHLQQFFR (Alpha-II spectrin, z 2, m/z 945, LD from WAT of treated mice): 1.04(1) | Ratio Treated, peptide LSDDNTIGQEEIQQR (Alpha-II spectrin, z 2, m/z 961.3, LD from WAT of treated mice): 1.25(1) | Ratio Treated, peptide DLAALGDKVNSLGETAQR (Alpha-II spectrin, z 2, m/z 1020, LD from WAT of treated mice): 1.29(1) | Ratio Treated, peptide SSLSSAQADFNQLAELDR (Alpha-II spectrin, z 2, m/z 1064, LD from WAT of treated mice): 0.99(3) | Ratio Treated, peptide SADESGQALLAASHYASDEVR (Alpha-II spectrin, z 2, m/z 1177, LD from WAT of treated mice): 1.14(3) | Ratio Treated, peptide NQALNTDNYGHDLASVQALQR (Alpha-II spectrin, z 2, m/z 1253, LD from WAT of treated mice): 0.91(3) | Ratio Treated, peptide HQAFEAELHANADR (Alpha-II spectrin, z 3, m/z 597.6, LD from WAT of treated mice): 0.81(1) | Ratio Treated, peptide SADESGQALLAASHYASDEVR (Alpha-II spectrin, z 3, m/z 785, LD from WAT of treated mice): 1.1(3) | Mean isotope ratio Treated, peptide THVDSLR (Apolipoprotein A-I, BIAP-treated/untreated, LD from WAT, 1 mg/kg i.p., 15 min): −1.12 | Ratio Treated, peptide (K)VQPYLDEFQK(K) (Apolipoprotein A-I, z 2, m/z 721.2, LD from WAT of treated mice): 0.97(2) | Ratio Treated, peptide (R)TQLAPHSEQMR(E) (Apolipoprotein A-I, z 2, m/z 736.9, LD from WAT of treated mice): 0.99(1) | Ratio Treated, peptide (K)SNPTLNEYHTR(A) (Apolipoprotein A-I, z 2, m/z 753.9, LD from WAT of treated mice): 1(4) | share of HSL peptide SVSEAALAQPEGLLGTDTLKK phosphorylated (LD of stimulated adipocytes): ~80% | Mean isotope ratio Treated, peptide SVSEAALAQPEGLLGTDTLK (Lipase, hormone sensitive, LD from WAT, 1 mg/kg i.p., 15 min): 5.1 | Ratio Treated, peptide (R)LILTPPAAPLN(—) (Lipase, hormone sensitive, z 2, m/z 647.8, LD from WAT of treated mice): 0.78(1) | Ratio Treated, peptide (R)AAFPEGFHPR(R) (Lipase, hormone sensitive, z 2, m/z 652.3, LD from WAT of treated mice): 1.14(2) | Ratio Treated, peptide (R)QATEFCVQR(I) (Lipase, hormone sensitive, z 2, m/z 657.2, LD from WAT of treated mice): 1.01(3) | Ratio Treated, peptide (K)HCDLLGSTGER(I) (Lipase, hormone sensitive, z 2, m/z 710.3, LD from WAT of treated mice): 1(4) | Ratio Treated, peptide (K)CVSAYSGTEAEDHFDSDQK(A) (Lipase, hormone sensitive, z 2, m/z 1164, LD from WAT of treated mice): 1.08(1) | Ratio Treated, peptide (K)CVSAYSGTEAEDHFDSDQK(A) (Lipase, hormone sensitive, z 3, m/z 774.6, LD from WAT of treated mice): 0.92(1) | Mean isotope ratio Treated, peptide FVEGLPINDFSR(E) (Malate dehydrogenase, cytoplasmic, LD from WAT, 1 mg/kg i.p., 15 min): 3.08 | Ratio Treated, peptide (K)GEFITTVQQR(G) (Malate dehydrogenase, cytoplasmic, z 2, m/z 677.3, LD from WAT of treated mice): 1.18(2) | Mean isotope ratio Treated, peptide GLSAPSCPNGLDDK (Perilipin, LD from WAT, 1 mg/kg i.p., 15 min): 1.4 | Mean isotope ratio Treated, peptide LSLMEPESEFRDIDNPSAEAER (Perilipin, LD from WAT, 1 mg/kg i.p., 15 min, 1 mg/kg): 1.6 and 1.63 | Ratio Treated, peptide GLDHLEEK (Perilipin, z 2, m/z 558.3, LD from WAT of treated mice): 1.05(4) | Ratio Treated, peptide EVTALPNPR (Perilipin, z 2, m/z 587.2, LD from WAT of treated mice): 1.1(4) | Ratio Treated, peptide ETAEYAANTR (Perilipin, z 2, m/z 650.7, LD from WAT of treated mice): 0.71(1) | Ratio Treated, peptide IPALQYPPEK (Perilipin, z 2, m/z 665.5, LD from WAT of treated mice): 1.01(4) | Ratio Treated, peptide EAHPLVASVCNAYEK (Perilipin, z 2, m/z 932, LD from WAT of treated mice): 1.06(4) | Ratio Treated, peptide VLQLPWSGTCECFQK (Perilipin, z 2, m/z 1020, LD from WAT of treated mice): 0.98(4) | Ratio Treated, peptide GVQGASNLAAWSMEPVVR (Perilipin, z 2, m/z 1024, LD from WAT of treated mice): 1(2) | Ratio Treated, peptide GVTDNVVDTVVHYVPLPR (Perilipin, z 2, m/z 1078, LD from WAT of treated mice): 0.93(3) | Ratio Treated, peptide GPTLLDGDLPEQENVLQR (Perilipin, z 2, m/z 1085, LD from WAT of treated mice): 1.05(4) | Ratio Treated, peptide VLQLPWSGTCECFQK (Perilipin, z 3, m/z 680.8, LD from WAT of treated mice): 1.17(2) | Ratio Treated, peptide GVQGASNLAAWSMEPVVR (Perilipin, z 3, m/z 683, LD from WAT of treated mice): 1(2) | Ratio Treated, peptide VVEFLLPPDKESAPSSGR (Perilipin, z 3, m/z 701.8, LD from WAT of treated mice): 1.11(4) | Ratio Treated, peptide GVTDNVVDTVVHYVPLPR (Perilipin, z 3, m/z 719.3, LD from WAT of treated mice): 1(3) | Ratio Treated, peptide GPTLLDGDLPEQENVLQR (Perilipin, z 3, m/z 723.9, LD from WAT of treated mice): 1.01(4) | Mean isotope ratio Treated, peptide SHDTTSNTLTQLLAK (Protein kinase C delta binding protein, LD from WAT, 1 mg/kg i.p., 15 min): 1.11 | Ratio Treated, peptide (R)LEANHGLLVAR(G) (Protein kinase C delta binding protein, z 2, m/z 684.4, LD from WAT of treated mice): 0.94(2) | Ratio Treated, peptide (K)EDPEKPVLQIESAA(—) (Protein kinase C delta binding protein, z 2, m/z 854.9, LD from WAT of treated mice): 0.74(1)
